This test relates to psoriasis. The experiment in a line: Separate tests of the single agents for treating psoriasis. It counts as in vivo, human. As to conditions: agent used alone. The source says:
Salicylic acid alone was ineffective.

This note sets out measurements from patent US6472381B1, “Method of treating psoriasis” (Biomas Inc., priority 2001, dated 2002).

Molecules are shown by their SMILES.

For the molecule `O=C(O)c1ccccc1O` [Salicylic acid, salicylic acid], the “efficacy for treating psoriasis” value is listed as “ineffective”.

Take `Cl[Te]1(Cl)(Cl)OCCO1.N` [ammonium trichloro (dioxoethylene-O,O′) tellurate]: the “efficacy for treating psoriasis” value is “effective for treating psoriasis but worked very slowly”.
